Results reported in ChEMBL document CHEMBL4385622, “Discovery of velpatasvir (GS-5816): A potent pan-genotypic HCV NS5A inhibitor in the single-tablet regimens Vosevi® and Epclusa®” (Bioorg Med Chem Lett, 2019).

Experiments:
[1] = Fraction absorbed in rat; assay type: ADME; conditions: in vivo, read-out: Fabs
[2] = Fraction absorbed in cynomolgus monkey; assay type: ADME, Macaca fascicularis; conditions: in vivo, read-out: Fabs
[3] = Fraction absorbed in dog; assay type: ADME, Canis lupus familiaris; conditions: in vivo, read-out: Fabs
[4] = molecular target: T1, Nonstructural protein 5A (Hepatitis C virus) (UniProt Q5L478); assay: Potency index, ratio of EC50 of ledipasvir to EC50 of test compound for inhibition of NS5A in HCV genotype 3a infected in human HuH7 replicon cells assessed as reduction in viral replication after 3 days by luciferase reporter gene assay; assay type: cell-based; conditions: Hepatitis C virus subtype 3a
T1 sequence (whole entry): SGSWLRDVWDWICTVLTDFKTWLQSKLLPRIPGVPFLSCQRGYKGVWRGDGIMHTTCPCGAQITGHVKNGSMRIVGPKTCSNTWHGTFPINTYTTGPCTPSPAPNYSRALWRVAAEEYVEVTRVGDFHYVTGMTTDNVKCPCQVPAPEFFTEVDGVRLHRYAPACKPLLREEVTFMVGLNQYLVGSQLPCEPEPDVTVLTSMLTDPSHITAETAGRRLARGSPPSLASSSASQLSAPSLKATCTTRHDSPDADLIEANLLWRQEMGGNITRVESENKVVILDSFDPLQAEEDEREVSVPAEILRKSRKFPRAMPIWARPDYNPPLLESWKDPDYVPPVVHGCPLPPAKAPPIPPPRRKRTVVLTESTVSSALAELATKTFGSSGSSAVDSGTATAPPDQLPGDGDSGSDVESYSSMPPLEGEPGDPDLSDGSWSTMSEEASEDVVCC

[5] = molecular target: T1, Nonstructural protein 5A (Hepatitis C virus); assay: Potency index, ratio of EC50 of ledipasvir to EC50 of test compound for inhibition of NS5A in HCV genotype 2b infected in human HuH7 replicon cells assessed as reduction in viral replication after 3 days by luciferase reporter gene assay; assay type: cell-based; conditions: Hepatitis C virus subtype 2b
[6] = molecular target: T1, Nonstructural protein 5A (Hepatitis C virus); assay: Potency index, ratio of EC50 of ledipasvir to EC50 of test compound for inhibition of NS5A in HCV genotype 2a J6 infected in human HuH7 replicon cells assessed as reduction in viral replication after 3 days by luciferase reporter gene assay; assay type: cell-based; conditions: Hepatitis C virus subtype 2a
[7] = Cytotoxicity against human MT4 cells infected with HCV genotype 1a H77 assessed as reduction in cell viability incubated for 5 days by CellTiter-Glo luminescent assay; assay type: cell-based
[8] = Clearance in monkey at 0.5 mg/kg, iv; assay type: ADME, organism-based, Macaca mulatta; conditions: rhesus monkey, in vivo
[9] = Cytotoxicity against human HepG2 cells infected with HCV genotype 1a H77 assessed as reduction in cell viability incubated for 5 days by CellTiter-Glo luminescent assay; assay type: cell-based
[10] = Selectivity index, ratio of CC50 for human MT4 cells infected with HCV genotype 1a H77 to EC50 for NS5A in HCV genotype 1a H77 infected in human MT4 replicon cells; assay type: toxicity, cell-based; conditions: read-out: Ratio CC50/EC50
[11] = Oral bioavailability in monkey at 1 mg/kg; assay type: ADME, organism-based, Macaca mulatta; conditions: rhesus monkey, in vivo
[12] = Selectivity index, ratio of CC50 for human PC3 cells infected with HCV genotype 1a H77 to EC50 for NS5A in HCV genotype 1a H77 infected in human PC3 replicon cells; assay type: toxicity, cell-based; conditions: read-out: Ratio CC50/EC50
[13] = Oral bioavailability in rat at 2 mg/kg; assay type: ADME, organism-based; conditions: in vivo
[14] = Clearance in rat at 2 mg/kg, iv; assay type: ADME, organism-based; conditions: in vivo
[15] = Cytotoxicity against human MRC5 cells infected with HCV genotype 1a H77 assessed as reduction in cell viability incubated for 5 days by CellTiter-Glo luminescent assay; assay type: cell-based
[16] = Cytotoxicity against human HuH7 cells infected with HCV genotype 1b Con-1 assessed as reduction in cell viability incubated for 5 days by CellTiter-Glo luminescent assay; assay type: cell-based, Huh-7
[17] = Clearance in dog at 0.25 mg/kg, iv; assay type: ADME, organism-based, Canis lupus familiaris; conditions: in vivo
[18] = Unbound drug level in dog plasma; assay type: ADME, cell-free, Canis lupus familiaris
[19] = Half life in monkey at 0.5 mg/kg, iv; assay type: ADME, organism-based, Macaca mulatta; conditions: rhesus monkey, in vivo
[20] = Selectivity index, ratio of CC50 for human MRC5 cells infected with HCV genotype 1a H77 to EC50 for NS5A in HCV genotype 1a H77 infected in human MRC5 replicon cells; assay type: toxicity, cell-based; conditions: read-out: Ratio CC50/EC50
[21] = Volume of distribution at steady state in dog at 0.25 mg/kg, iv; assay type: ADME, organism-based, Canis lupus familiaris; conditions: in vivo, read-out: Vdss
[22] = Unbound drug level in human plasma; assay type: ADME, cell-free
[23] = Cytotoxicity against human PC3 cells infected with HCV genotype 1b Con-1 assessed as reduction in cell viability incubated for 5 days by CellTiter-Glo luminescent assay; assay type: cell-based, PC-3
[24] = Volume of distribution at steady state in monkey at 0.5 mg/kg, iv; assay type: ADME, organism-based, Macaca mulatta; conditions: rhesus monkey, in vivo, read-out: Vdss
[25] = Cytotoxicity against human MRC5 cells infected with HCV genotype 1b Con-1 assessed as reduction in cell viability incubated for 5 days by CellTiter-Glo luminescent assay; assay type: cell-based
[26] = Cytotoxicity against human PC3 cells infected with HCV genotype 1a H77 assessed as reduction in cell viability incubated for 5 days by CellTiter-Glo luminescent assay; assay type: cell-based, PC-3
[27] = Selectivity index, ratio of CC50 for human HepG2 cells infected with HCV genotype 1a H77 to EC50 for NS5A in HCV genotype 1a H77 infected in human HepG2 replicon cells; assay type: toxicity, cell-based; conditions: read-out: Ratio CC50/EC50
[28] = Unbound drug level in monkey plasma; assay type: ADME, cell-free, Macaca mulatta; conditions: rhesus monkey
[29] = Unbound drug level in rat plasma; assay type: ADME, cell-free
[30] = Half life in human at 100 mg, po; assay type: ADME; conditions: in vivo
[31] = Half life in rat at 2 mg/kg, iv; assay type: ADME, organism-based; conditions: in vivo
[32] = Volume of distribution at steady state in rat at 2 mg/kg, iv; assay type: ADME, organism-based; conditions: in vivo, read-out: Vdss
[33] = Half life in dog at 0.25 mg/kg, iv; assay type: ADME, organism-based, Canis lupus familiaris; conditions: in vivo
[34] = Cytotoxicity against human MT4 cells infected with HCV genotype 1b Con-1 assessed as reduction in cell viability incubated for 5 days by CellTiter-Glo luminescent assay; assay type: cell-based
[35] = Cytotoxicity against human HepG2 cells infected with HCV genotype 1b Con-1 assessed as reduction in cell viability incubated for 5 days by CellTiter-Glo luminescent assay; assay type: cell-based
[36] = Selectivity index, ratio of CC50 for human Huh7 cells infected with HCV genotype 1a H77 to EC50 for NS5A in HCV genotype 1a H77 infected in human HuH7 replicon cells; assay type: toxicity, cell-based; conditions: read-out: Ratio CC50/EC50
[37] = Oral bioavailability in human at 100 mg; assay type: ADME, organism-based; conditions: in vivo
[38] = Cytotoxicity against human HuH7 cells infected with HCV genotype 1a H77 assessed as reduction in cell viability incubated for 5 days by CellTiter-Glo luminescent assay; assay type: cell-based, Huh-7
[39] = Oral bioavailability in dog at 0.5 mg/kg; assay type: ADME, organism-based, Canis lupus familiaris; conditions: in vivo

SMILES: COC[C@H]1C[C@@H](c2ncc(-c3ccc4c(c3)COc3cc5c(ccc6nc([C@@H]7CCCN7C(=O)[C@@H](NC(=O)OC)C(C)C)[nH]c65)cc3-4)[nH]2)N(C(=O)[C@H](NC(=O)OC)c2ccccc2)C1
- Fa [1]: 12%
- Fa [2]: 3%

SMILES: COC[C@H]1C[C@@H](c2nc3ccc4cc5c(cc4c3[nH]2)OCc2cc(-c3cnc([C@@H]4CCCN4C(=O)[C@@H](NC(=O)OC)C(C)C)[nH]3)ccc2-5)N(C(=O)[C@@H](NC(=O)OC)C(C)C)C1
- Fa [1]: 16%
- Fa [3]: 56%

SMILES: COC(=O)N[C@H](C(=O)N1CCC[C@H]1c1ncc(-c2cc3c4c(c2)OCc2cc(-c5cnc([C@@H]6CCCN6C(=O)[C@@H](NC(=O)OC)C(C)C)[nH]5)cc(c2-4)OC3)[nH]1)C(C)C
- Fa [1]: 23%
- Ratio EC50 [4]: 4800
- Fa [3]: 70%
- Ratio EC50 [5]: 300
- Ratio EC50 [6]: 28
- Fa [2]: 15%

SMILES: COC(=O)N[C@@H](C(=O)N1[C@@H](C)CC[C@H]1c1ncc(-c2cc3c4c(c2)OCc2cc(-c5cnc([C@@H]6CC[C@H](C)N6C(=O)[C@H](NC(=O)OC)c6ccccc6)[nH]5)cc(c2-4)OC3)[nH]1)c1ccccc1
- Fa [1]: 3%
- Fa [3]: 43%

SMILES: COC[C@H]1C[C@@H](c2ncc(-c3ccc4c(c3)COc3cc5c(ccc6nc([C@@H]7CC[C@H](C)N7C(=O)[C@@H](NC(=O)OC)C(C)C)[nH]c65)cc3-4)[nH]2)N(C(=O)[C@H](NC(=O)OC)c2ccccc2)C1 [VELPATASVIR]
- CC50 at 120 h [7]: > 44.4 µM
- clearance [8]: 5 mL/min/kg
- CC50 at 120 h [9]: > 44.4 µM
- Fa [1]: 36%
- selectivity ratio [10]: > 4.9e+06
- bioavailability [11]: 30%
- selectivity ratio [12]: > 4.9e+06
- bioavailability [13]: 28%
- clearance [14]: 15.7 mL/min/kg
- CC50 at 120 h [15]: > 44.4 µM
- CC50 at 120 h [16]: > 44.4 µM
- clearance [17]: 4.17 mL/min/kg
- Fu [18]: 0.2%
- Fa [3]: 29%
- half-life [19]: 5.03 h
- selectivity ratio [20]: > 4.9e+06
- Vd [21]: 1.43 L/kg
- Fu [22]: 0.3%
- CC50 at 120 h [23]: > 44.4 µM
- Vd [24]: 1.6 L/kg
- CC50 at 120 h [25]: > 44.4 µM
- CC50 at 120 h [26]: > 44.4 µM
- selectivity ratio [27]: > 4.9e+06
- Fu [28]: 0.4%
- Fu [29]: 0.2%
- half-life [30]: 15.7 h
- half-life [31]: 2.25 h
- Vd [32]: 1.61 L/kg
- half-life [33]: 5.2 h
- CC50 at 120 h [34]: > 44.4 µM
- CC50 at 120 h [35]: > 44.4 µM
- selectivity ratio [36]: > 4.9e+06
- bioavailability [37]: 50%
- CC50 at 120 h [38]: > 44.4 µM
- Fa [2]: 37%
- bioavailability [39]: 25%

SMILES: COC(=O)N[C@H](C(=O)N1CCC[C@H]1c1ncc(-c2ccc3c(c2)COc2c-3ccc3c2ccc2nc([C@@H]4CCCN4C(=O)[C@@H](NC(=O)OC)C(C)C)[nH]c23)[nH]1)C(C)C
- Fa [1]: 31%
- Fa [3]: 54%

SMILES: COC[C@H]1C[C@@H](c2ncc(-c3ccc4c(c3)COc3cc5c(ccc6nc([C@@H]7C[C@H](COC)CN7C(=O)[C@@H](NC(=O)OC)C(C)C)[nH]c65)cc3-4)[nH]2)N(C(=O)[C@@H](NC(=O)OC)C(C)C)C1
- Fa [1]: 10%

SMILES: COC(=O)N[C@@H](C(=O)N1C[C@@H](C)C[C@H]1c1ncc(-c2cc3c4c(c2)OCc2cc(-c5cnc([C@@H]6C[C@H](C)CN6C(=O)[C@H](NC(=O)OC)c6ccccc6)[nH]5)cc(c2-4)OC3)[nH]1)c1ccccc1
- Fa [1]: 2%
- Fa [3]: 30%

SMILES: COC[C@H]1C[C@@H](c2nc3ccc4cc5c(cc4c3[nH]2)OCc2cc(-c3cnc([C@@H]4CC[C@H](C)N4C(=O)[C@@H](NC(=O)OC)C(C)C)[nH]3)ccc2-5)N(C(=O)[C@@H](NC(=O)OC)C(C)C)C1
- Fa [1]: 13%
- Fa [2]: 64%

SMILES: COC(=O)N[C@H](C(=O)N1CCC[C@H]1c1ncc(-c2ccc3c(c2)COc2cc4c(ccc5nc([C@@H]6CCCN6C(=O)[C@@H](NC(=O)OC)C(C)C)[nH]c54)cc2-3)[nH]1)C(C)C
- Fa [1]: 15%
- Fa [3]: 50%

SMILES: COC[C@H]1C[C@@H](c2ncc(-c3ccc4c(c3)COc3cc5c(ccc6nc([C@@H]7C[C@H](C)CN7C(=O)[C@@H](NC(=O)OC)C(C)C)[nH]c65)cc3-4)[nH]2)N(C(=O)[C@H](NC(=O)OC)c2ccccc2)C1
- Fa [1]: 9%
- Fa [2]: 4%
